“And” between values parts separate entries of the source, which are not always exact repeats. Equal values may be shown once.
Row | melting point | SMILES
1 | 126 °C | Nc1cc(Cl)ccc1[N+](=O)[O-] [5-chloro-2-nitroaniline]
2 | 71 °C | Clc1ccc2[nH]ccc2c1 [5-chloroindole]
3 | 151 °C | O=C(O)c1ccc(Cl)s1 [5-chlorothiophene-2-carboxylic acid]
4 | 164 °C | COc1cc(C=O)cc(Cl)c1O [5-chlorovanillin]
5 | 149 °C | Cc1ccc(F)cc1B(O)O [5-fluoro-2-methylbenzeneboronic acid]
6 | 180 °C | O=C(O)c1cc(F)ccc1O [5-fluorosalicylic acid]
7 | 160 °C | COc1ccc(C=O)cc1B(O)O [5-formyl-2-methoxybenzeneboronic acid]
8 | 196 °C | COc1cc(C(=O)O)cc(O)c1OC [5-hydroxy-3,4-dimethoxybenzoic acid]
9 | 158 °C | O=c1cc(-c2ccccc2)oc2cccc(O)c12 [5-hydroxyflavone]
10 | 34 °C | O=Cc1ccc(CO)o1 [5-hydroxymethyl-2-furaldehyde]
11 | 117 °C | COc1ccc2c(c1)no[n+]2[O-] [5-methoxybenzofuroxan]
12 | 35 °C | COc1cccc2c1C(=O)C2 [5-methoxybicyclo[4.2.0]octa-1,3,5-trien-7-one]
13 | 55 °C | Cc1ccc([N+](=O)[O-])c(O)c1 [5-methyl-2-nitrophenol]
14 | 129 °C | CC1=CC(c2c(C)cc(C)cc2C)N=N1 (centres undefined) [5-methyl-3-(2,4,6-trimethylphenyl)-1H-pyrazole]
15 | 34 °C | Cc1ccc2sccc2c1 [5-methylbenzo[b]thiophene]
16 | 164 °C | Cc1cc(C#N)cc(C#N)c1 [5-methylisophthalonitrile]
17 | 213 °C | Cc1cncc(C(=O)O)c1 [5-methylnicotinic acid]
18 | 141 °C | O=[N+]([O-])c1ccc2[nH]ccc2c1 [5-nitroindole]
19 | 232 °C | O=C(O)c1cc([N+](=O)[O-])ccc1O [5-nitrosalicylic acid]
20 | 168 °C | Brc1ccc(-c2cccc(Br)n2)cn1 [6,6'-dibromo-2,3'-bipyridine]
21 | 227 °C | O=C(Nc1ccc2cc(OC(=O)c3ccccc3)ccc2c1)c1ccccc1 [6-[(phenylcarbonyl)amino]naphthalen-2-yl benzoate]
22 | -21 °C | CC(=O)c1ccc2c(c1)CCCC2 [6-acetyl-1,2,3,4-tetrahydronaphthalene]

Row | melting point | SMILES
23 | 35 °C | Clc1ccc2ncccc2c1 [6-chloroquinoline]
24 | 76 °C | Fc1ccc2cc[nH]c2c1 [6-fluoroindole]
25 | 92 °C | COc1ccc2cc[nH]c2c1 [6-methoxyindole]
26 | 129 °C | Cc1cccc(C(=O)O)n1 [6-methylpyridine-2-carboxylic acid]
27 | 246 °C | O=c1[nH]c2ccc([N+](=O)[O-])cc2o1 [6-nitro-2(3h)-benzoxazolone]
28 | 243 °C | Cc1cc(=O)oc2c(O)c(O)ccc12 [7,8-dihydroxy-4-methylcomarin]
29 | 76 °C | O=C(CBr)c1ccc2c(c1)OCCCO2 [7-bromoacetyl-3,4-dihydro-1,5-benzodioxepin]
30 | 180 °C | [O-][n+]1ccc2ccc(Br)cc2c1 [7-bromoisoquinoline n-oxide]
31 | 283 °C | Cc1cc(O)n2ncnc2n1 [7-hydroxy-5-methyl[1,2,4]triazolo[1,5-a]pyrimidine]
32 | 206 °C | COc1ccc2c(C)cc(=O)[nH]c2c1 [7-methoxy-4-methyl-2(1h)-quinolinone]
33 | 84 °C | Cc1cccc2cc[nH]c12 [7-methylindole]
34 | 42 °C | CC1(C)c2ccccc2Oc2ccccc21 [9,9-dimethylxanthene]
35 | 156 °C | OC1c2ccccc2-c2ccccc21 [9-fluorenol]
36 | 83 °C | O=C1c2ccccc2-c2ccccc21 [9-fluorenone]
37 | 101 °C | c1ccc2c(c1)Cc1ccccc1O2 [9H-Xanthene]
38 | 186 °C | CC(C)/C=N/Nc1ccc([N+](=O)[O-])cc1[N+](=O)[O-] [(2E)-1-(2,4-Dinitrophenyl)-2-(2-methylpropylidene)hydrazine]
39 | 154 °C | O/N=C(\c1ccccc1)C(O)c1ccccc1 (centres undefined) [(2E)-2-(Hydroxyimino)-1,2-diphenylethanol]
40 | 135 °C | C/C(=C\C(=O)O)c1ccc(C)cc1 [(2E)-3-(4-methylphenyl)but-2-enoic acid]
41 | 77 °C | O=C(/C=C/c1ccc(Br)o1)c1ccco1 [(2E)-3-(5-bromofuran-2-yl)-1-furan-2-ylprop-2-en-1-one]
42 | 135 °C | CN(C)c1ccc(/C=C/C=O)cc1 [(2E)-3-[4-(Dimethylamino)phenyl]acrylaldehyde]
43 | 147 °C | O=C(/C=C/c1ccc(-c2cccc([N+](=O)[O-])c2)o1)c1ccccc1 [(2E)-3-[5-(3-Nitrophenyl)-2-furyl]-1-phenylprop-2-en-1-one]

Continued, compound first:

Row | SMILES | melting point
44 | CNc1ccc(Cl)cc1C(=O)c1ccccc1 [5-chloro-2-methylaminobenzophenone] | 96 °C
45 | O=c1[nH]c(=O)n([C@H]2C[C@H](O)[C@@H](CO)O2)cc1F [5-fluoro-2'-deoxyuridine] | 150 °C
46 | C#CCCC(C)C [5-methyl-1-hexyne] | -124 °C
47 | CCC(C)CCC(C)O (centres undefined) [5-methyl-2-heptanol] | -120 °C
48 | CC(O)C1(O)CCC2C3CCC4(C)CC(O)CCC4(C)C3CCC21C (centres undefined) [5-methylpregnane-3,17,20-triol] | 219 °C
49 | NNC(=O)c1ccc([N+](=O)[O-])o1 [5-nitro-2-furohydrazide] | 171 °C
50 | CCCCC(=O)CCCC [5-nonanone] | -50 °C
51 | O=C(O)CCCCc1ccccc1 [5-phenylvaleric acid] | 59 °C
52 | CC(C)CCC[C@@H](C)[C@H]1CC[C@H]2[C@@H]3CC[C@H]4C[C@@H](O)CC[C@]4(C)[C@H]3CC[C@]12C [5alpha-cholestan-3beta-ol] | 142 °C
53 | NCCCCCCO [6-Aminohexan-1-ol] | 56 °C
54 | Nc1ncc2ncn(COCCO)c2n1 [6-Deoxyacyclovir] | 188 °C and 189 °C
55 | NCCCCCC(=O)O [6-aminocaproic acid] | 205 °C
56 | Nc1c(Cl)cc([N+](=O)[O-])cc1[N+](=O)[O-] [6-chloro-2,4-dinitroaniline] | 157 °C
57 | Fc1nc(Cl)c2nc[nH]c2n1 [6-chloro-2-fluoropurine] | 152 °C
58 | OB(O)c1ccc(Cl)nc1 [6-chloropyridine-3-boronic acid] | 156 °C
59 | CC(C)CCCC(C)C1CCC2C3CC(O)C4=CC(=O)CCC4(C)C3CCC12C (centres undefined) [6-hydroxycholest-4-en-3-one] | 155 °C
60 | CCCCCC(=O)CCCCC [6-undecanone] | 15 °C
61 | Cc1c2ccccc2cc2ccccc12 [9-methylanthracene] | 78 °C and 80 °C
62 | CCCCCCCCCCC#CC#CCCCCCCCCC(=O)O [10,12-tricosadiynoic acid] | 57 °C
63 | CC(=O)OC1CCC2(C)C(CCC3C4=C(CCC32)C(C)(C#Cc2ccccc2)CC4)C1 (centres undefined) [10,17-dimethyl-17-(phenylethynyl)gon-13-en-3-yl acetate] | 136 °C
64 | OCCCCCCCCCCc1ccccc1 [10-Phenyldecan-1-ol] | 36 °C

Row | SMILES | melting point
65 | C[C@]12CCC(=O)CC1CCC1=C2CC[C@@H]2C(=O)CC[C@@H]12 (some centres undefined) [10-methylgon-8-ene-3,17-dione] | 138 °C
66 | C[C@]12CCC(=O)C=C1CC[C@@H]1[C@@H]2C(O)C[C@@]2(C)[C@H]1CC[C@]2(O)C(=O)CO (some centres undefined) [11,17,21-Trihydroxypregn-4-ene-3,20-dione] | 223 °C
67 | CCCCCCCCCCC(O)CCCCCCCCCC [11-heneicosanol] | 72 °C
68 | CCCCCCC(O)CCCCCCCCCCC(=O)O (centres undefined) [12-hydroxystearic acid] | 75 °C
69 | CC12CCC(=O)CC1CCC1C2CCC2(C)C(=O)CCC12O (centres undefined) [14-hydroxyandrostane-3,17-dione] | 199 °C
70 | CC(=O)OC1CCC2(C)C(=CCC3C2CCC2(C)C3CCC2(O)C#Cc2ccccc2)C1 (centres undefined) [17-hydroxy-21-phenylpregn-5-en-20-yn-3-yl acetate] | 148 °C
71 | CC(=O)OC1CCC2(C)C(CCC3C2CCC2(C)C3CCC2(O)CCc2ccccc2)C1 (centres undefined) [17-hydroxy-21-phenylpregnan-3-yl acetate] | 138 °C
72 | CC12CCC3C(CCC4CC(=O)CCC43C)C1CCC2O (centres undefined) [17-hydroxyandrostan-3-one] | 121 °C
73 | CC1=CCC2C3CCC4CC(=O)CCC4(C)C3CCC12C (centres undefined) [17-methylandrost-16-en-3-one] | 141 °C
74 | O=C4\C=C3/[C@]([C@H]2CC[C@]1([C@@H](CC[C@@]1(O)C)[C@@H]2CC3)C)(C)CC4 [17-methyltestosterone] | 164 °C
75 | CCCOC1CCC2C3CCC4=CC(O)CCC4(C)C3CCC12C (centres undefined) [17-propoxyandrost-4-en-3-ol] | 125 °C
76 | C#C[C@]1(O)CC[C@H]2[C@@H]3CCc4cc(O)ccc4[C@H]3CC[C@@]21C [17alpha-ethynylestradiol] | 144 °C
77 | CC12CCCCC1CCC1C2CCC2(C)C1CCC2(O)C#Cc1ccccc1 (centres undefined) [21-phenylpregn-20-yn-17-ol] | 103 °C
78 | C[C@]12CCC(O)CC1CC[C@@H]1[C@@H]2CC[C@@]2(C)[C@H]1CC[C@]2(O)C#Cc1ccccc1 (some centres undefined) [21-phenylpregn-20-yne-3,17-diol] | 122 °C
79 | O=C(CCc1ccccc1)/C(=N/O)c1ccccc1 [(1E)-1,4-diphenylbutane-1,2-dione 1-oxime] | 130 °C
80 | CC(=O)O/C(=C\C=C(\OC(C)=O)c1ccccc1)c1ccccc1 [(1E,3Z)-4-(acetyloxy)-1,4-diphenylbuta-1,3-dien-1-yl acetate] | 126 °C
81 | O=C(O)[C@@H]1[C@@H]2CC[C@@H](C2)[C@@H]1C(=O)O [(1R,2R,3S,4S)-Bicyclo[2.2.1]heptane-2,3-dicarboxylic acid] | 160 °C
82 | Nc1ccccc1C(O)(c1ccccc1)c1ccccc1 [(2-aminophenyl)(diphenyl)methanol] | 122 °C
83 | O=C(/C=C/c1ccc(-c2ccccc2)o1)c1ccco1 [(2E)-1-(2-furyl)-3-(5-phenyl-2-furyl)prop-2-en-1-one] | 100 °C
84 | O=C(O)/C(=C/c1ccccc1)c1ccccc1 [(2E)-2,3-Diphenylacrylic acid] | 173 °C

— the Bradley open melting point set (2014)
